Measurements taken from patent publication US10640441B2, “Difluorinated compounds as depigmenting or lightening agents” (TFCHEM, priority 2016, dated 2020).
Values joined by “and” are separate entries in the source; they are usually repeats but may differ in a detail not shown here. Equal entries are not always repeated.

Tests used:
[1] = tested on: NHEM culture; assay: Determination of the higher non-cytotoxic concentration on NHEM culture; assay type: cell-based, human
Method: The compounds have been tested beforehand at different concentrations on the NHEM culture to determine the higher non-cytotoxic concentration to be used to evaluate the potential inhibition of melanin synthesis. The determined concentration was 300 μM for all compounds: 8, 16, 28a.

[2] = tested on: normal human epidermal melanocytes (NHEM); assay: Inhibition of melanin synthesis in L-tyrosine-stimulated human epidermal melanocytes; assay type: cell-based; conditions: 300 μM; stimulation by L-tyrosine (1 mM); 240 hours; n=3
Method: Human melanocytes are stimulated by L-tyrosine to induce an increase of the melanin synthesis and be able to measure an inhibition of this synthesis when a whitening agent is added.
Biological model: normal human epidermal melanocytes (NHEM), lightly pigmented, were cultured in medium M254 supplemented with PMA free HMGS-2; Insulin 5 ag/ml; Penicillin 50 U/ml; Streptomycin 50 ag/ml; Gentamycin 25 μg/ml (incubator: 37° C. and 5% CO2).
Culture and treatment: melanocytes were seeded in 24-well plates and cultured in culture medium for 24 hours. The medium was then replaced by culture medium containing the test compounds or not (stimulated control) in presence of the inducer (L-tyrosine at 1 mM). The cells were then incubated for 240 hours with 2 treatment renewals after 72 and 168 hours of incubation. A non-stimulated control was performed in parallel. All experimental conditions were performed in n=3.
Melanin assay: at the end of incubation, the culture supernatants were removed and the melanin was extracted by cell lysis using a 0.5 N NaOH solution. The optical density (OD) of each experimental point was measured at 405 nm and melanin quantity was calculated using melanin standards (standard curve 0.39 to 100 μg/ml melanin). Results were expressed in […] of melanin.

[3] = tested on: human tyrosinase; assay: Inhibition of human tyrosinase in-tubo (HumanLike Tyrosinase Assay kit, Feldan); assay type: biochemical; conditions: 1.12 mM
Method: The efficacy of compound 8 was evaluated by the inhibition of human tyrosinase in-tubo and compared to the prior art compound deoxyarbutin.
The assay was performed with a ready-to-use kit from Feldan Inc (Canada): the HumanLike Tyrosinase Assay kit (ref A021-a-001Kit).
The protocol was performed as described in the instructions for use of the manufacturer. Briefly, this kit is intended for the determination of human tyrosinase activity in presence of different inhibitors. The kit measures the conversion of L-Tyrosine into a dopachrome complex absorbing at 490 nm. The time course of the assay is 20 minutes, after which the results are analyzed and compared.
The compound 8 and deoxyarbutin have been tested at a final concentration of 1.12 mM. The measured absorbances at 490 nm are reported in the table 1 and plotted in function of time in the FIG. 1.
Moreover for each compound the efficacy as tyrosinase inhibitor was calculated using the following formula: […]

| SMILES | higher non-cytotoxic concentration [1] [µM] | Melanin synthesis (μg/ml), single replicates [2] | Melanin synthesis, Mean [2] [µg/mL] | Inhibitor efficacy (%) ([3]; T = 20 min) | OD at 490 nm ([3]; time 0 min) | OD at 490 nm ([3]; time 1 min) | OD at 490 nm ([3]; time 2 min) | OD at 490 nm ([3]; time 3 min) | OD at 490 nm ([3]; time 4 min) | OD at 490 nm ([3]; time 5 min) | OD at 490 nm ([3]; time 6 min) | OD at 490 nm ([3]; time 7 min) | OD at 490 nm ([3]; time 8 min) | OD at 490 nm ([3]; time 9 min) | OD at 490 nm ([3]; time 10 min) | OD at 490 nm ([3]; time 11 min) | OD at 490 nm ([3]; time 12 min) | OD at 490 nm ([3]; time 13 min) | OD at 490 nm ([3]; time 14 min) | OD at 490 nm ([3]; time 15 min) | other results |
| --- | --- | --- | --- | --- | --- | --- | --- | --- | --- | --- | --- | --- | --- | --- | --- | --- | --- | --- | --- | --- | --- |
| Oc1ccc(OC2C(O)CCCC2(F)F)cc1 (racemic) [Compound 16] | 300 | 7.9 μg/ml and 8.2 μg/ml (2×) | 8.1 | – | – | – | – | – | – | – | – | – | – | – | – | – | – | – | – | – | – |
| Oc1ccc(O[C@@H]2[C@H](O)[C@@H](O)CCC2(F)F)cc1 [Compound 8] | 300 | 9.2 μg/ml (2×) and 9.4 μg/ml | 9.3 | 32.0 | 0.0000 | 0.0080 | 0.0170 | 0.0245 | 0.0345 | 0.0415 | 0.0505 | 0.0610 | 0.0675 | 0.0755 | 0.0845 | 0.0935 | 0.1015 | 0.1090 | 0.1165 | 0.1255 | times better efficacy than deoxyarbutin on human tyrosinase inhibition ([3]; T = 20 min): 3.4 times; OD at 490 nm ([3]; time 16 min): 0.1355; OD at 490 nm ([3]; time 17 min): 0.1405; OD at 490 nm ([3]; time 18 min): 0.1495; OD at 490 nm ([3]; time 19 min): 0.1575; OD at 490 nm ([3]; time 20 min): 0.1665 |
| N[C@@H]1CCCC(F)(F)[C@@H]1Oc1ccc(O)cc1 [Compound 28a] | 300 | 9.9 µg/mL and 10.5 µg/mL and 10.2 µg/mL | 10.2 | – | – | – | – | – | – | – | – | – | – | – | – | – | – | – | – | – | – |
| Oc1ccc(OC2CCCCO2)cc1 (stereo not drawn) [Deoxyarbutin, deoxyarbutin, reference compound] | – | – | – | 9.4 | 0.0000 | 0.0100 | 0.0195 | 0.0290 | 0.0385 | 0.0480 | 0.0585 | 0.0695 | 0.0800 | 0.0935 | 0.1035 | 0.1155 | 0.1265 | 0.1385 | 0.1500 | 0.1615 | OD at 490 nm ([3]; time 16 min): 0.1735; OD at 490 nm ([3]; time 17 min): 0.1846; OD at 490 nm ([3]; time 18 min): 0.1975; OD at 490 nm ([3]; time 19 min): 0.2095; OD at 490 nm ([3]; time 20 min): 0.2220 |
